According to publication PMC11124870, “Effect of Antioxidants in Medicinal Products on Intestinal Drug Transporters” (Pharmaceutics, 2024):
“Also recorded” adds a separate entry of the source. Like-named read-outs stand apart in the source and are kept apart here.

Legend:
[1] = Table S1; source not stated; cited from earlier work
OATP2B1 = molecular target: T1, OATP2B1 (Homo sapiens, UniProt O94956); test: Uptake transporter assay, 3H-estrone sulfate uptake in HEK-293-OATP2B1 cells; details: for IC50: mean ± SD of three independent experiments
T1 sequence (O94956 1-709): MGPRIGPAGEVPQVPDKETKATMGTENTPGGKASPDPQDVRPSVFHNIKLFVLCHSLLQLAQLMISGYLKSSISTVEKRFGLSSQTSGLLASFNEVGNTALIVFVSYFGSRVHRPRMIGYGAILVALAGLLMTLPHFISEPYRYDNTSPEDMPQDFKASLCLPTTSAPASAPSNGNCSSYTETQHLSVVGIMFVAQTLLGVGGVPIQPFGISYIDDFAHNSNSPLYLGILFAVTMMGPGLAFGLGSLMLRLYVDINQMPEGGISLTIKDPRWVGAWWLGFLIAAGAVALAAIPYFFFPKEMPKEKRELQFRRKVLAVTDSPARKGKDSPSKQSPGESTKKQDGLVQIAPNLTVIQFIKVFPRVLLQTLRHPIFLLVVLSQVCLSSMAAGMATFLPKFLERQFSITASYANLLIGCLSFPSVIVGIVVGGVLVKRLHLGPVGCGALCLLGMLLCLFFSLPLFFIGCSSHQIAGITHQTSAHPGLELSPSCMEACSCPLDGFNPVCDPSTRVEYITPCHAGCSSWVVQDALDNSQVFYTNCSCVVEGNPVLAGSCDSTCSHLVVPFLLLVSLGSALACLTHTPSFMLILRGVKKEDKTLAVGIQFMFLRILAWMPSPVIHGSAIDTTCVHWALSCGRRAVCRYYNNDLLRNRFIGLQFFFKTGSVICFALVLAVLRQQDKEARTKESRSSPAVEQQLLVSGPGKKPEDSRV
Protocol: The uptake transporter assay was performed as reported previously with minor modifications [15]. A day before the uptake assay, Isoplate 96-well plates were coated with poly-D-lysine in PBS with calcium and magnesium and washed with PBS. […] An assay mixture of ^3H-estrone sulfate, a known inhibitor of OATP2B1, or an antioxidant was prepared and incubated in a 37 °C incubator for 10 min. The cells were washed with ice-cold HBSS three times and incubated with MicroScint fluid on a shaker for 1 h for cell lysis. Radioactivity was measured by liquid scintillation counting with a MicroBeta^2® microplate counter. […] On the day of experiment, cells were washed twice with 0.4 mL of HBSS per well and then pre-incubated for 10–20 min in 0.4 mL of HBSS. […] Uptake of ^3H-valsartan was stopped after 15 min by washing three times with ice-cold HBSS. Cells were lysed in 750 µL of lysis buffer (0.1 N NaOH and 0.1% SDS in double-distilled water) per well while shaking for 60 min. A total of 690 µL of the lysate from each well was then added to 2.5 mL of EcoLite scintillation fluid. The radioactivity was determined on a LS6500 Scintillation Counter (Beckman Coulter). Protein concentration was measured with a Pierce™ BCA protein assay kit. The radioactivity in each well was corrected for protein concentration. All values were determined in triplicate, and the final values are expressed as % uptake relative to negative control (1% DMSO).
Antioxidants were screened at a concentration of 200 μM.

[2] = Estimation of intestinal luminal concentration (Igut), dose/250 mL; details: estimated from maximum oral amount (AP 10 mg, BHA 8 mg) in 250 mL intestinal fluid
Protocol: Igut is intestinal luminal concentration estimated as dose/250 mL. The Igut concentration was estimated using the following equation: Igut=A÷MW×V×10^6 where Igut is the estimated intestinal luminal concentration (µM), A is the amount of antioxidant in an oral dosage (mg), MW is the molecular weight, and V is the volume of intestinal fluid, i.e., 250 mL.

P-gp (human MDR1) = P-gp (human MDR1) (Homo sapiens, UniProt P08183); test: Transwell transport assay, basal-to-apical digoxin flux in MDCK-hMDR1-cMDR1-KO cells; details: 3H-digoxin 2.5 µM, 4 h
Chain of P-gp (human MDR1) (P08183 whole entry): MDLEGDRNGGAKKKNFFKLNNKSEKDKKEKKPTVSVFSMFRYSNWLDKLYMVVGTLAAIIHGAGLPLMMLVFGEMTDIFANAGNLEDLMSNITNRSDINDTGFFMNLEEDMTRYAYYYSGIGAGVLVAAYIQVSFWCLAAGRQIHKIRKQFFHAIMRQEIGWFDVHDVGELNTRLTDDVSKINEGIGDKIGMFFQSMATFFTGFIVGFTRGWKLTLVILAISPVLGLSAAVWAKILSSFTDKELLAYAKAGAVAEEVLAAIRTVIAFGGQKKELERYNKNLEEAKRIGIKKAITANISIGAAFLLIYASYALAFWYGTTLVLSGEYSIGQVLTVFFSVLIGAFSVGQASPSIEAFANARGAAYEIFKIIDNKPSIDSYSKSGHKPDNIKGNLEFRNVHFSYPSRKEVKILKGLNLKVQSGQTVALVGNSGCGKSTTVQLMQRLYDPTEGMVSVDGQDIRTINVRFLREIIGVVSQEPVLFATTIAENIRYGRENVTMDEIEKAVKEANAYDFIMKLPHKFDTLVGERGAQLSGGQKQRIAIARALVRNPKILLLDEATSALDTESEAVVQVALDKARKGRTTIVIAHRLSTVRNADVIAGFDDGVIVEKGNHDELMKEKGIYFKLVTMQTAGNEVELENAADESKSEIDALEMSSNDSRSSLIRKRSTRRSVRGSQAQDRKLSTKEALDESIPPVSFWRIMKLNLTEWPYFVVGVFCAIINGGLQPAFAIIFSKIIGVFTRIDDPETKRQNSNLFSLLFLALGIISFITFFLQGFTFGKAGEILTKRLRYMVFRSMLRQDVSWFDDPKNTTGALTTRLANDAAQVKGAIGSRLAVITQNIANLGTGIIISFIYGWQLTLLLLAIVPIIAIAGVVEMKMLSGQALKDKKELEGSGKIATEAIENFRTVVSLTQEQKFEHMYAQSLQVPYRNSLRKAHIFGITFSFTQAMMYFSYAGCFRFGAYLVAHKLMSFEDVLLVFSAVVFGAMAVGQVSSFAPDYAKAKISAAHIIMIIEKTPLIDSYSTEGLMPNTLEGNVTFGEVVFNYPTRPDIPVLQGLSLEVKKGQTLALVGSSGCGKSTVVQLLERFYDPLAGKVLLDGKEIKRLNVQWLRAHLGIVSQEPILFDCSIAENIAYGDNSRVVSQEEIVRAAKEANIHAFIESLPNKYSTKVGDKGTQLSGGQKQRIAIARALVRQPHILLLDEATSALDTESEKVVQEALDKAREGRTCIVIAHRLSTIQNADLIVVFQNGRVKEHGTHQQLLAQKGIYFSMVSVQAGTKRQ
Protocol: The transport assay was performed using MDCK-hMDR1-cMDR1-KO, MDCK-cMDR1-KO, and MDCK-hBCRP-cMDR1-KO as reported previously with minor modifications. In brief, 133,000 cells were seeded onto a Transwell membrane insert, a semipermeable polyethylene terephthalate membrane. During the differentiation process, the medium volume in the apical chamber was kept at 300 μL, while the basal chamber contained 1000 μL. The cells were allowed to differentiate for 7–9 days at 37 °C in a humidified incubator with 5% CO2. Before starting transporter assays, the integrity of the cell monolayer was checked using lucifer yellow permeability assays. […] From the basal chamber, 100 μL samples were collected for fluorescence measurements using GloMax® Explorer with a 475 nm excitation filter and a 500–550 nm emission filter to calculate the percent permeability per well.
To assess the flux of digoxin or prazosin from the basal to apical side, the cells were washed twice with HBSS. […] All apical and basal samples were mixed with scintillation fluid (EcoLite(+)™ liquid scintillation cocktail), and their radioactivity was measured using liquid scintillation counting (Beckman LS6500). […] For data analysis, the disintegration per minute counts of digoxin or prazosin from the apical samples were converted to picomoles using radioactivity measured in the substrate solution.

[3] = tested on: MDCK cell tight junctions; test: Lucifer yellow permeability assay of MDCK monolayer integrity; type: cell-based; details: BHA 250 µM
Protocol: The transport assay was performed using MDCK-hMDR1-cMDR1-KO, MDCK-cMDR1-KO, and MDCK-hBCRP-cMDR1-KO as reported previously with minor modifications [14, 27]. In brief, 133,000 cells were seeded onto a Transwell membrane insert, a semipermeable polyethylene terephthalate membrane. During the differentiation process, the medium volume in the apical chamber was kept at 300 μL, while the basal chamber contained 1000 μL. The cells were allowed to differentiate for 7–9 days at 37 °C in a humidified incubator with 5% CO2. Before starting transporter assays, the integrity of the cell monolayer was checked using lucifer yellow permeability assays. Cells were washed twice with HBSS, lucifer yellow (0.1 mg/mL) in HBSS was added to the apical chamber, and the basal chamber was filled with fresh HBSS. The assembled plate was then incubated at 37 °C for 1 h. From the basal chamber, 100 μL samples were collected for fluorescence measurements using GloMax® Explorer with a 475 nm excitation filter and a 500–550 nm emission filter to calculate the percent permeability per well.
At the end of the transport assay, a lucifer yellow permeability assay was performed as described earlier.

COc1ccc(O)cc1C(C)(C)C [Butylated hydroxyanisole (BHA), 2-tert-Butyl-4-hydroxyanisole]
LogP [1]: 3.2
Inhibition of OATP2B1 (OATP2B1; 200 µM, 3H-estrone sulfate): at least 50%
Effect of 30 min pre-incubation on inhibition potency (OATP2B1; OATP2B1-expressing cells pre-incubated for 30 min): did not further affect their inhibition potency
% Uptake of 3H-ES OATP2B1 (OATP2B1; antioxidant 200 µM, uptake with DMSO set as 100%, mean ± SD, three replicates, HEK-293-OATP2B1 cells): 19.8 ± 7.1%
IC50 (OATP2B1; read-out: IC50 OATP2B1, substrate 3H-estrone sulfate): 71 ± 20 µM
IC50 (OATP2B1; read-out: IC50 with preincubation, OATP2B1 expressing cells pre-incubated 30 minutes): 67 ± 12.8 µM
IC50 (OATP2B1; read-out: IC50 without preincubation, OATP2B1 expressing cells): 76.9 ± 15.9 µM
Max Intestinal Conc (µM) in 250 mL Fluid [2]: 178 µM
Inhibition of digoxin transport (basal to apical) (P-gp (human MDR1); BHA 62.5 µM on both sides): Neither the estimated maximal intestinal concentration of 178 µM nor a lower concentration (62.5 µM) inhibited digoxin transport
Inhibition of digoxin transport (basal to apical) (P-gp (human MDR1); BHA 178 µM on both sides): Neither the estimated maximal intestinal concentration of 178 µM nor a lower concentration (62.5 µM) inhibited digoxin transport; also recorded: did not impede digoxin transport
Effect on MDCK cell tight junctions (lucifer yellow permeability) [3]: disrupted MDCK cell tight junctions
